Test systems include ACHN renal; BT-549 breast; HL-60(TB) leukemia; LOX IMVI melanoma; MALME-3M melanoma; MDA-MB-231 breast; MDA-MB-435; NCI-H23 lung; NCI-H460 lung; NCI-H522 lung; SF-539 CNS; SK-MEL-2 melanoma; SK-OV-3 ovarian; SNB-75 CNS.
What all share (assay): NCI tumour cell line growth inhibition, 48 h

SMILES strings stand for the structures.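 Where inhibition never reached the appropriate level, the endpoint shown equals the highest concentration tested. Otherwise, values were interpolated linearly from a five-concentration, 48-hour dose response in 96-well plates. Definition used: TGI = concentration required for complete inhibition of growth.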

Turning to `COc1cc2c(cc1OC)C(=O)N(NC1=NCCN1)C2=O`, the TGI in the experiment with ACHN renal, with BT-549 breast, in the experiment with HL-60(TB) leukemia, in the experiment on LOX IMVI melanoma, in the experiment on MALME-3M melanoma and in the experiment with MDA-MB-231 breast was greater than 100 µM in each case. Further, the TGI with MDA-MB-435, in the experiment on NCI-H23 lung, with NCI-H460 lung, with NCI-H522 lung, in the experiment with SF-539 CNS and with SK-MEL-2 melanoma was greater than 100 µM each time. In the experiment on SK-OV-3 ovarian, this molecule showed a TGI greater than 100 µM.
As for `COc1cccc(-c2nc(-c3cnccn3)n(COCCO)n2)c1`, the TGI in the experiment with BT-549 breast, in the experiment with HL-60(TB) leukemia, in the experiment with LOX IMVI melanoma, in the experiment with MDA-MB-231 breast, with MDA-MB-435 and in the experiment on NCI-H23 lung was greater than 100 µM in each case. Besides, the TGI in the experiment on NCI-H460 lung, in the experiment with NCI-H522 lung, in the experiment with SF-539 CNS and in the experiment on SK-OV-3 ovarian was greater than 100 µM throughout.
As to `CC(C)(C)OC(=O)N(CCCCNCc1ccc2ccccc2c1)CCCNCc1ccc2ccccc2c1`, the TGI with ACHN renal stood at 3.39 µM; in the experiment with BT-549 breast, 3.25 µM; with HL-60(TB) leukemia it was 0.507 µM; with MDA-MB-231 breast, 2.28 µM; in the experiment with MDA-MB-435, 3.47 µM; with NCI-H23 lung it was 3.42 µM. Also, the TGI came out at 2.18 µM with NCI-H460 lung; 3.07 µM with NCI-H522 lung; 2.97 µM in the experiment with SF-539 CNS; 3.56 µM with SK-OV-3 ovarian; 2.99 µM in the experiment with SNB-75 CNS.
As for `COc1ccc(CCc2nccn2C)cc1OC`, the TGI in the experiment with ACHN renal, with BT-549 breast, in the experiment with HL-60(TB) leukemia, in the experiment with LOX IMVI melanoma, with MALME-3M melanoma and in the experiment with MDA-MB-435 was greater than 100 µM in each case. The TGI with NCI-H23 lung, with NCI-H460 lung, with SF-539 CNS, with SK-MEL-2 melanoma and with SK-OV-3 ovarian was greater than 100 µM in each case.
Turning to `COc1ccc(N=[N+]([O-])c2ccc(OC)cc2)cc1`, the TGI with ACHN renal, with BT-549 breast, in the experiment with MALME-3M melanoma, in the experiment on MDA-MB-231 breast, with MDA-MB-435 and with NCI-H23 lung was greater than 100 µM in each case. For the same molecule, the TGI with NCI-H460 lung, in the experiment with NCI-H522 lung, with SK-MEL-2 melanoma, in the experiment with SK-OV-3 ovarian and in the experiment on SNB-75 CNS was greater than 100 µM each time.
Take `N#CCCN(CCN(CCC#N)C(=O)Nc1ccccc1)C(=O)Nc1ccccc1`: the TGI in the experiment with ACHN renal, with BT-549 breast, in the experiment with HL-60(TB) leukemia, in the experiment with LOX IMVI melanoma, with MALME-3M melanoma and in the experiment on MDA-MB-231 breast was greater than 100 µM each time. Moreover, the TGI with NCI-H23 lung is greater than 100 µM; in the experiment with NCI-H460 lung, greater than 100 µM; in the experiment on NCI-H522 lung it was 98.4 µM; with SK-MEL-2 melanoma, greater than 100 µM; in the experiment with SK-OV-3 ovarian it was greater than 100 µM; in the experiment on SNB-75 CNS it was 47.8 µM.
With `CC(=O)ON(C(C)=O)c1ccc(-c2nc3ccccc3s2)cc1C`, the TGI with ACHN renal, with BT-549 breast, in the experiment on LOX IMVI melanoma, in the experiment with MALME-3M melanoma, with MDA-MB-231 breast and with MDA-MB-435 was greater than 100 µM each time. Further, the TGI in the experiment on NCI-H23 lung, with NCI-H460 lung, in the experiment with NCI-H522 lung, in the experiment with SF-539 CNS, with SK-MEL-2 melanoma and in the experiment on SNB-75 CNS was greater than 100 µM in each case.
As for `CC1=NN=C(N)NC1=CC(Sc1ccc(Cl)cc1)c1c(O)ccc2ccccc12` (stereo unspecified), the TGI in the experiment with ACHN renal was 28.1 µM; with BT-549 breast, greater than 81.5 µM; in the experiment on LOX IMVI melanoma it was greater than 65.2 µM; with MALME-3M melanoma it was 20.4 µM; with MDA-MB-231 breast, 56.5 µM; in the experiment on MDA-MB-435 it was greater than 86.6 µM. Also, the TGI with NCI-H23 lung stood at 51.6 µM; in the experiment with NCI-H460 lung it was 45.1 µM; in the experiment on NCI-H522 lung, 41.8 µM; in the experiment on SK-MEL-2 melanoma it was 23.2 µM; in the experiment with SK-OV-3 ovarian, 67.4 µM; in the experiment on SNB-75 CNS, 70.2 µM.
Consider `COC(=O)c1c(-c2ccccc2)c2sc3ccccc3n2c1N`, for which the TGI with ACHN renal is greater than 100 µM; in the experiment with BT-549 breast, greater than 100 µM; with LOX IMVI melanoma it was 43.2 µM; with MALME-3M melanoma, 68.1 µM; in the experiment with MDA-MB-231 breast, greater than 100 µM; with MDA-MB-435, greater than 100 µM. Also, the TGI with NCI-H23 lung was greater than 100 µM; with NCI-H460 lung, greater than 100 µM; with NCI-H522 lung, 73.2 µM; in the experiment with SF-539 CNS it was greater than 100 µM; in the experiment with SK-MEL-2 melanoma, 70.7 µM; in the experiment with SK-OV-3 ovarian, greater than 100 µM. In addition, the TGI in the experiment with SNB-75 CNS is greater than 100 µM.
Regarding `COc1cc(C2C(Cl)C(=O)N2NC(=O)c2ccc(NC(C)=O)cc2OC)ccc1O` (stereo unspecified), the TGI is 50.2 µM in the experiment on ACHN renal; 33.9 µM in the experiment with BT-549 breast; 44.8 µM in the experiment on HL-60(TB) leukemia; 26.4 µM in the experiment with LOX IMVI melanoma; 53.6 µM in the experiment with MALME-3M melanoma; greater than 100 µM in the experiment on MDA-MB-435. The TGI was 39.8 µM with NCI-H23 lung; 23 µM in the experiment on NCI-H522 lung; 48.1 µM in the experiment with SF-539 CNS; 29.9 µM in the experiment with SK-MEL-2 melanoma; greater than 100 µM in the experiment on SK-OV-3 ovarian; 80.1 µM with SNB-75 CNS.
As to `N#Cc1c(N2CCOCC2)[nH]c(=O)c(C(c2c(Cl)cccc2Cl)c2c(O)c(C#N)c(N3CCOCC3)[nH]c2=O)c1O`, the TGI came out at 29.6 µM with ACHN renal; 32.8 µM with BT-549 breast; 29.3 µM with HL-60(TB) leukemia; 25.6 µM with LOX IMVI melanoma; 26.8 µM with MALME-3M melanoma; 30.4 µM in the experiment with MDA-MB-231 breast. Moreover, the TGI in the experiment on MDA-MB-435 is 30.2 µM; with NCI-H23 lung, 32.8 µM; in the experiment on NCI-H460 lung it was greater than 100 µM; in the experiment on NCI-H522 lung it was 28.2 µM; in the experiment on SF-539 CNS, 34.9 µM; with SK-MEL-2 melanoma, 39.5 µM.
Consider `C/C=C/[C@H](O[Si](C)(C)C(C)(C)C)[C@@H](O)/C=C/C(=O)OCC`, for which the TGI in the experiment on ACHN renal is 30.2 µM; in the experiment on BT-549 breast, 65.4 µM; in the experiment with LOX IMVI melanoma it was 33.3 µM; in the experiment with MALME-3M melanoma, 28.4 µM; in the experiment on MDA-MB-231 breast, 66 µM; with MDA-MB-435 it was 38.5 µM. Also, the TGI in the experiment with NCI-H23 lung is greater than 100 µM; with NCI-H460 lung, 34.6 µM; in the experiment with NCI-H522 lung, 30.3 µM; in the experiment with SF-539 CNS it was 52 µM; with SK-MEL-2 melanoma, 82 µM; in the experiment with SNB-75 CNS it was greater than 100 µM.

For the origin of these results see PubChem BioAssay (NCI).
